Measured values from ChEMBL document CHEMBL5543097, “Synthesis and structure-activity relationships of novel 14-membered 2-fluoro ketolides with structural modification at the C11 position” (Eur J Med Chem, 2024).
Converted amounts (≈) assume the structure as drawn. The source made the active and inactive calls. No cut-off for these calls is given here.

Columns and labels:
Streptococcus pyogenes = experiment: Antibacterial activity against erythromycin-resistant Streptococcus pyogenes ATCC 19615 assessed as inhibition of visible bacterial growth incubated for 18 hrs by broth microdilution method; assay type: functional
Streptococcus agalactiae [1] = experiment: Antibacterial activity against erythromycin-resistant Streptococcus agalactiae 19-9 assessed as inhibition of visible bacterial growth incubated for 18 hrs by broth microdilution method; assay type: functional
Streptococcus agalactiae [2] = experiment: Antibacterial activity against erythromycin-resistant Streptococcus agalactiae 19-8 assessed as inhibition of visible bacterial growth incubated for 18 hrs by broth microdilution method; assay type: functional
Streptococcus pneumoniae [3] = experiment: Antibacterial activity against erythromycin-resistant Streptococcus pneumoniae SPN19-14 assessed as inhibition of visible bacterial growth incubated for 18 hrs by broth microdilution method; assay type: functional
Streptococcus pneumoniae [4] = experiment: Antibacterial activity against erythromycin-resistant Streptococcus pneumoniae SPN19-13 assessed as inhibition of visible bacterial growth incubated for 18 hrs by broth microdilution method; assay type: functional
Streptococcus pneumoniae [5] = experiment: Antibacterial activity against erythromycin-resistant Streptococcus pneumoniae SPN19-8 assessed as inhibition of visible bacterial growth incubated for 18 hrs by broth microdilution method; assay type: functional
[6] = tested on: Staphylococcus epidermidis; experiment: Antibacterial activity against erythromycin-resistant Staphylococcus epidermidis 19-11 assessed as inhibition of visible bacterial growth incubated for 18 hrs by broth microdilution method; assay type: functional
[7] = tested on: Staphylococcus epidermidis; experiment: Antibacterial activity against erythromycin-resistant Staphylococcus epidermidis 19-9 assessed as inhibition of visible bacterial growth incubated for 18 hrs by broth microdilution method; assay type: functional
[8] = tested on: Staphylococcus epidermidis; experiment: Antibacterial activity against erythromycin-resistant Staphylococcus epidermidis 19-8 assessed as inhibition of visible bacterial growth incubated for 18 hrs by broth microdilution method; assay type: functional
[9] = tested on: Staphylococcus epidermidis; experiment: Antibacterial activity against erythromycin-resistant Staphylococcus epidermidis 19-6 assessed as inhibition of visible bacterial growth incubated for 18 hrs by broth microdilution method; assay type: functional
[10] = tested on: Staphylococcus epidermidis; experiment: Antibacterial activity against erythromycin-resistant Staphylococcus epidermidis 19-4 assessed as inhibition of visible bacterial growth incubated for 18 hrs by broth microdilution method; assay type: functional
[11] = tested on: Staphylococcus epidermidis; experiment: Antibacterial activity against erythromycin-resistant Staphylococcus epidermidis 19-5 assessed as inhibition of visible bacterial growth incubated for 18 hrs by broth microdilution method; assay type: functional
Moraxella catarrhalis [12] = experiment: Antibacterial activity against Moraxella catarrhalis BCA 19-5 assessed as inhibition of bacterial growth incubated for 24 hrs by CLSI based broth microdilution method; assay type: functional; conditions: Moraxella catarrhalis, BCA 19-5, 24 h, read-out: MIC
Moraxella catarrhalis [13] = experiment: Antibacterial activity against Moraxella catarrhalis BCA 19-6 assessed as inhibition of bacterial growth incubated for 24 hrs by CLSI based broth microdilution method; assay type: functional; conditions: Moraxella catarrhalis, BCA 19-6, 24 h, read-out: MIC
Moraxella catarrhalis [14] = experiment: Antibacterial activity against Moraxella catarrhalis BCA 19-31 assessed as inhibition of bacterial growth incubated for 24 hrs by CLSI based broth microdilution method; assay type: functional; conditions: BCA 19-31, 24 h
Haemophilus influenzae [15] = experiment: Antibacterial activity against Haemophilus influenzae HIN 19-15 assessed as inhibition of bacterial growth incubated for 20 to 24 hrs by CLSI based broth microdilution method; assay type: functional; conditions: time 20-24 hrs
Haemophilus influenzae [16] = experiment: Antibacterial activity against Haemophilus influenzae HIN 19-18 assessed as inhibition of bacterial growth incubated for 20 to 24 hrs by CLSI based broth microdilution method; assay type: functional; conditions: HIN 19-18, time 20-24 hrs
Escherichia coli = experiment: Antibacterial activity against Escherichia coli ATCC 35218 assessed as inhibition of visible bacterial growth; assay type: functional, organism-based
[17] = Cytotoxicity against mouse AML12 cells assessed as reduction in cell viability incubated for 48 hrs by MTT assay; assay type: toxicity, cell-based
Streptococcus pneumoniae [18] = experiment: Potency index, ratio of telithromycin MIC to test compound MIC for antibacterial activity against Streptococcus pneumoniae SPN19-13 assessed as inhibition of visible bacterial growth incubated for 18 hrs by broth microdilution method; assay type: functional
Streptococcus pneumoniae [19] = experiment: Potency index, ratio of telithromycin MIC to test compound MIC for antibacterial activity against Streptococcus pneumoniae SPN19-8 assessed as inhibition of visible bacterial growth incubated for 18 hrs by broth microdilution method; assay type: functional
[20] = tested on: Staphylococcus epidermidis; experiment: Potency index, ratio of telithromycin MIC to test compound MIC for antibacterial activity against erythromycin-resistant Staphylococcus epidermidis 19-11 assessed as inhibition of visible bacterial growth incubated for 18 hrs by broth microdilution method; assay type: functional
[21] = tested on: Staphylococcus epidermidis; experiment: Potency index, ratio of telithromycin MIC to test compound MIC for antibacterial activity against erythromycin-resistant Staphylococcus epidermidis 19-9 assessed as inhibition of visible bacterial growth incubated for 18 hrs by broth microdilution method; assay type: functional
[22] = tested on: Staphylococcus epidermidis; experiment: Potency index, ratio of telithromycin MIC to test compound MIC for antibacterial activity against erythromycin-resistant Staphylococcus epidermidis 19-8 assessed as inhibition of visible bacterial growth incubated for 18 hrs by broth microdilution method; assay type: functional
[23] = tested on: Staphylococcus epidermidis; experiment: Potency index, ratio of telithromycin MIC to test compound MIC for antibacterial activity against erythromycin-resistant Staphylococcus epidermidis 19-6 assessed as inhibition of visible bacterial growth incubated for 18 hrs by broth microdilution method; assay type: functional
[24] = tested on: Staphylococcus epidermidis; experiment: Potency index, ratio of telithromycin MIC to test compound MIC for antibacterial activity against erythromycin-resistant Staphylococcus epidermidis 19-5 assessed as inhibition of visible bacterial growth incubated for 18 hrs by broth microdilution method; assay type: functional
[25] = tested on: Staphylococcus epidermidis; experiment: Potency index, ratio of telithromycin MIC to test compound MIC for antibacterial activity against erythromycin-resistant Staphylococcus epidermidis 19-4 assessed as inhibition of visible bacterial growth incubated for 18 hrs by broth microdilution method; assay type: functional
Streptococcus pneumoniae [26] = experiment: Potency index, ratio of telithromycin MIC to test compound MIC for antibacterial activity against Streptococcus pneumoniae SPN19-14 assessed as inhibition of visible bacterial growth incubated for 18 hrs by broth microdilution method; assay type: functional
[27] = Metabolic stability in human liver microsome assessed as parent compound remaining in absence of NADPH measured at 60 mins by LC-MS/MS analysis; assay type: ADME; conditions: liver microsomes, read-out: Stability
[28] = Metabolic stability in human liver microsome assessed as parent compound remaining in presence of NADPH measured at 60 mins by LC-MS/MS analysis; assay type: ADME; conditions: liver microsomes, read-out: Stability
[29] = Metabolic stability in human liver microsome assessed as intrinsic clearance measured at 60 mins by LC-MS/MS analysis; assay type: ADME; conditions: liver microsomes, read-out: CLH
[30] = Metabolic stability in human liver microsome assessed as half life measured at 60 mins by LC-MS/MS analysis; assay type: ADME; conditions: liver microsomes
Haemophilus influenzae [31] = experiment: Antibacterial activity against Haemophilus influenzae HIN 20-18 assessed as inhibition of bacterial growth incubated for 20 to 24 hrs by CLSI based broth microdilution method; assay type: functional; conditions: time 20-24 hrs

Row | SMILES | MIC (Streptococcus pyogenes) [µg/mL] | MIC (Streptococcus agalactiae [1]) [µg/mL] | MIC (Streptococcus agalactiae [2]) [µg/mL] | MIC (Streptococcus pneumoniae [3]) [µg/mL] | MIC (Streptococcus pneumoniae [4]) [µg/mL] | MIC (Streptococcus pneumoniae [5]) [µg/mL] | MIC [6] [µg/mL] | MIC [7] [µg/mL] | MIC [8] [µg/mL] | MIC [9] [µg/mL] | MIC [10] [µg/mL] | MIC [11] [µg/mL] | MIC (Moraxella catarrhalis [12]) [µg/mL] | MIC (Moraxella catarrhalis [13]) [µg/mL] | MIC (Moraxella catarrhalis [14]) [µg/mL] | MIC (Haemophilus influenzae [15]) [µg/mL] | MIC (Haemophilus influenzae [16]) [µg/mL] | CC50 at 48 h [17] [µM] | Ratio (Streptococcus pneumoniae [18]) | Ratio (Streptococcus pneumoniae [19]) | also measured
1 | CC[C@H]1OC(=O)[C@@](C)(F)C(=O)[C@H](C)[C@@H](O[C@@H]2O[C@H](C)C[C@H](N(C)C)[C@H]2O)[C@](C)(OC)C[C@@H](C)C(=O)[C@H](C)[C@H]2N(CCCOC(=O)Nc3ccccc3[N+](=O)[O-])C(=O)O[C@]12C | < 0.03 | 4 (≈ 4.69 µM) | < 0.03 | 0.25 (≈ 0.293 µM) | 0.25 (≈ 0.293 µM) | 1 (≈ 1.17 µM) | 0.125 (≈ 0.147 µM) | 0.25 (≈ 0.293 µM) | 0.125 (≈ 0.147 µM) | 0.125 (≈ 0.147 µM) | 0.125 (≈ 0.147 µM) | 0.125 (≈ 0.147 µM) | 0.5 (≈ 0.586 µM) | 0.5 (≈ 0.586 µM) | 0.125 (≈ 0.147 µM) | 8 (≈ 9.38 µM) | 8 (≈ 9.38 µM) | 27.4 |  |  | Activity (Escherichia coli): Active
2 | CC[C@H]1OC(=O)[C@@](C)(F)C(=O)[C@H](C)[C@@H](O[C@@H]2O[C@H](C)C[C@H](N(C)C)[C@H]2O)[C@](C)(OC)C[C@@H](C)C(=O)[C@H](C)[C@H]2N(CCCOC(=O)Nc3ccc(F)cc3)C(=O)O[C@]12C | < 0.03 | 0.25 (≈ 0.303 µM) | < 0.03 | < 0.03 | < 0.03 | < 0.03 | < 0.03 | 0.06 (≈ 0.0726 µM) | < 0.03 | < 0.03 | < 0.03 | < 0.03 | 0.03 (≈ 0.0363 µM) | 0.03 (≈ 0.0363 µM) | 0.03 (≈ 0.0363 µM) | 4 (≈ 4.84 µM) | 2 (≈ 2.42 µM) | 97.9 | <4 | <4 | Ratio [20]: 4; Ratio [21]: 4; Ratio [22]: 4; Ratio [23]: 4; Ratio [24]: 4; Ratio [25]: 4; Ratio (Streptococcus pneumoniae [26]): <4; remaining at 1 h [27]: 95%; remaining at 1 h [28]: 0.4%; microsomal CLint [29]: 183 µL/min/mg; half-life [30]: 3.8 min
3 | CC[C@H]1OC(=O)[C@@](C)(F)C(=O)[C@H](C)[C@@H](O[C@@H]2O[C@H](C)C[C@H](N(C)C)[C@H]2O)[C@](C)(OC)C[C@@H](C)C(=O)[C@H](C)[C@H]2N(CCCOC(=O)Nc3ccc4c(c3)CCO4)C(=O)O[C@]12C | < 0.03 | 2 (≈ 2.35 µM) |  | 0.06 (≈ 0.0706 µM) | 0.6 (≈ 0.706 µM) | 0.06 (≈ 0.0706 µM) | < 0.03 | 0.06 (≈ 0.0706 µM) | 0.03 (≈ 0.0353 µM) | 0.06 (≈ 0.0706 µM) | 0.03 (≈ 0.0353 µM) | < 0.03 | 0.06 (≈ 0.0706 µM) | 0.125 (≈ 0.147 µM) | 0.06 (≈ 0.0706 µM) | 8 (≈ 9.41 µM) | 2 (≈ 2.35 µM) | > 100 | <4 | <4 | Ratio [20]: 4; Ratio [21]: 4; Ratio [22]: 4; Ratio [23]: 4; Ratio [24]: 4; Ratio [25]: 4; Ratio (Streptococcus pneumoniae [26]): <4; MIC (Haemophilus influenzae [31]): 8 µg/mL (≈ 9.41 µM); remaining at 1 h [27]: 89.4%; remaining at 1 h [28]: 0.3%; microsomal CLint [29]: 341 µL/min/mg; half-life [30]: 2 min
